Molecular target: T1, purified recombinant active kinase domain of full length PKC theta (amino acids 362-706) (Homo sapiens, UniProt Q04759)
T1 construct: active kinase domain of full length PKC theta (amino acids 362-706)
Test: Radioactive kinase assay for inhibition of the active kinase domain (KD) of PKCθ
Format: biochemical
Settings: radioactive (ATP γ P33) assay, average value
Protocol: A Radioactive Kinase Assay for Inhibition of the Active Kinase Domain (KD) of PKCθ
This assay is based on the phosphorylation of a biotinylated substrate by a kinase utilizing radiolabeled ATP (ATP γ P33). The substrate was a biotinylated peptide with a sequence of biotin-FARKGSLRQ-C(O)NH2. The enzyme was purified recombinant active kinase domain of full length PKC theta (amino acids 362-706). The assay buffer was composed of 100 mM Hepes, pH7.5, 2 mM MgCl2, 20 mM β-glycerophosphate and 0.008% TritonX 100. A reaction mixture of ATP, ATP γ P33 (PerkinElmer), DTT, and the enzyme was prepared in the assay buffer and added to a 96-well polypropylene plate. The compound (diluted in DMSO in a separate 96-well polypropylene plate) was added to the reaction mixture and incubated at room temperature. Following the incubation, the peptide substrate was added to the reaction mixture to initiate the enzymatic reaction. The reaction was terminated with the addition of a stop solution (100 mM EDTA, 0.2% TritonX100, and 20 mM NaHPO4) and transferred from the assay plate to a washed streptavidin-coated 96-well scintiplate (PerkinElmer). The scintiplate was incubated at room temperature, washed in PBS with 0.1% TritonX 100, and counted in the 1450 Microbeta Trilux (Wallac, Version 2.60). Counts were recorded for each well as corrected counts per minute (CCPM). The counts were considered corrected because they were adjusted according to a P33 normalization protocol, which corrects for efficiency and background differences between the instrument detectors (software version 4.40.01).

T1 sequence (Q04759 362-706): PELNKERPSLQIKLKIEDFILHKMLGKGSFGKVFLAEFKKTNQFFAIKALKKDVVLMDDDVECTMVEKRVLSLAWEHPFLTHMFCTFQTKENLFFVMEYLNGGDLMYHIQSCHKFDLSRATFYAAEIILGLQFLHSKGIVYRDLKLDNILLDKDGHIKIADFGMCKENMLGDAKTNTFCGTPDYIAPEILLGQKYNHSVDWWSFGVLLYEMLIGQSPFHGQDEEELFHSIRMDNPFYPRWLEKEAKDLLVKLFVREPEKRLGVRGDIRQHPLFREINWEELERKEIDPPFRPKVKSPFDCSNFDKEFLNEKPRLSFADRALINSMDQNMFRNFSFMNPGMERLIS

IC50 [µM] | SMILES
6.87 | COc1ccc(-c2cncc(C#N)c2Nc2cccc(Cl)c2)cc1OC [Compound 101, 4-[(3-chlorophenyl)amino]-5-(3,4-dimethoxyphenyl)nicotinonitrile]
0.6 | COc1ccc(-c2cncc(C#N)c2Nc2cc(F)ccc2F)cc1OC [Compound 104, 4-[(2,5-difluorophenyl)amino]-5-(3,4-dimethoxyphenyl)nicotinonitrile]
10.6 | COc1ccc(Nc2c(C#N)cncc2-c2ccc(OC)c(OC)c2)cc1OC [Compound 105, 5-(3,4-dimethoxyphenyl)-4-[(3,4-dimethoxyphenyl)amino]nicotinonitrile]
0.84 | COc1ccc(-c2cncc(C#N)c2Nc2ccc(Cl)cc2F)cc1OC [Compound 106, 4-[(4-chloro-2-fluorophenyl)amino]-5-(3,4-dimethoxyphenyl)nicotinonitrile]
2.91 | COc1ccc(-c2cncc(C#N)c2Nc2ccc(F)c(Cl)c2)cc1OC [Compound 107, 4-[(3-chloro-4-fluorophenyl)amino]-5-(3,4-dimethoxyphenyl)nicotinonitrile]
2.77 | COc1ccc(-c2cncc(C#N)c2Nc2ccc(Cl)cc2)cc1OC [Compound 108, 4-[(4-chlorophenyl)amino]-5-(3,4-dimethoxyphenyl)nicotinonitrile]
0.81 | COc1ccc(-c2cncc(C#N)c2Nc2ccc(C)cc2C)cc1OC [Compound 109, 5-(3,4-dimethoxyphenyl)-4-[(2,4-dimethylphenyl)amino]nicotinonitrile]
1.16 | COc1ccc(Nc2c(C#N)cncc2-c2ccc(OC)c(OC)c2)cc1 [Compound 110, 5-(3,4-dimethoxyphenyl)-4-[(4-methoxyphenyl)amino]nicotinonitrile]
1.41 | COc1ccc(Nc2c(C#N)cncc2-c2ccc(OC)c(OC)c2)cc1Cl [Compound 111, 4-[(3-chloro-4-methoxyphenyl)amino]-5-(3,4-dimethoxyphenyl)nicotinonitrile]
3.6 | COc1ccc(-c2cncc(C#N)c2Nc2cc(Cl)ccc2Cl)cc1OC [Compound 113, 4-[(2,5-dichlorophenyl)amino]-5-(3,4-dimethoxyphenyl)nicotinonitrile]
0.4 | COc1ccc(Nc2c(C#N)cncc2-c2ccc(OC)c(OC)c2)c(C)c1 [Compound 114, 5-(3,4-dimethoxyphenyl)-4-[(4-methoxy-2-methylphenyl)amino]nicotinonitrile]
3.2 | COc1ccc(Cl)cc1Nc1c(C#N)cncc1-c1ccc(OC)c(OC)c1 [Compound 116, 4-[(5-chloro-2-methoxyphenyl)amino]-5-(3,4-dimethoxyphenyl)nicotinonitrile]
13.8 | COc1ccc(-c2cncc(C#N)c2Nc2cccc(OCc3ccccc3)c2)cc1OC [Compound 117, 4-{[3-(benzyloxy)phenyl]amino}-5-(3,4-dimethoxyphenyl)nicotinonitrile]
4.44 | COc1ccc(-c2cncc(C#N)c2Nc2ccc(C)cc2)cc1OC [Compound 118, 5-(3,4-dimethoxyphenyl)-4-[(4-methylphenyl)amino]nicotinonitrile]
1040 | COc1ccc(-c2cncc(C#N)c2Nc2ccc(OCc3cccc(C#N)c3)c(Cl)c2)cc1OC [Compound 122, 4-({3-chloro-4-[(3-cyanobenzyl)oxy]phenyl}amino)-5-(3,4-dimethoxyphenyl)nicotinonitrile]
38 | COc1ccc(-c2cncc(C#N)c2Nc2ccc(OCc3cccs3)c(Cl)c2)cc1OC [Compound 123, 4-{[3-chloro-4-(thien-2-ylmethoxy)phenyl]amino}-5-(3,4-dimethoxyphenyl)nicotinonitrile]
0.34 | COc1ccc(-c2cncc(C#N)c2Nc2ccc(Cl)cc2Cl)cc1OC [Compound 126, 4-[(2,4-dichlorophenyl)amino]-5-(3,4-dimethoxyphenyl)nicotinonitrile]
5 | COc1ccc(-c2cncc(C#N)c2Nc2cccc(Br)c2)cc1OC [Compound 135, 4-[(3-bromophenyl)amino]-5-(3,4-dimethoxyphenyl)nicotinonitrile]

— US20070287738A1, “Substituted Cyanopyridines as protein kinase inhibitors” (priority 2006, published 2007)
